Literature values in US20170101624A1, “METHODS OF ENHANCING T-CELL LONGEVITY AND USES THEREOF” (Washington University, priority 2015, published 2017).

Tested on: Drp1 (Dnm1)
Details: as disclosed in Cassidy-Stone et al. Developmental Cell 2008

Structure (SMILES): COc1cc(-n2c(=S)[nH]c3ccccc3c2=O)c(Cl)cc1Cl [compound A]
- efficacy relative to Mdivi-1 (inhibition of mitochondrial fission): full efficacy
